# Earlier results in patent US20170245500A1 (priority 2014, published 2017).
# Details: some conditions, e.g. high temperature or higher soil pH
compound,measurement,value
CCOP(=O)(SC(C)CC)N1CCSC1=O (stereo not shown) [fosthiazate],time in which the pesticide can be degraded in soil,under ten
